System: Staphylococcus aureus (ATCC 6538)
Assay: EPA Test antimicrobial efficacy (log kill) of films/coupons
Type: cell-based

With `CCOP(OCC)OCC.[Cu][I]` [CuI(TEP), iodo(triethyl phosphite)copper(I)] the antimicrobial efficacy was “essentially full kill”.
